Measurements: patent US12559529B2, “NPY2 receptor agonists” (Boehringer Ingelheim International GmbH, priority 2019, dated 2026)

How the values were obtained:
[1] = test system: normal NMRI mice; assay: Effect on acute food intake in normal NMRI mice; type: in vivo; settings: male NMRI mice, 10 nmol/kg subcutaneously once
Procedure: Male NMRI mice were obtained from Charles River (Charles River, Research Models & Services Germany GmbH) or from Jan Vier (Jan Vier Labs, France) at 5 weeks of age. […] Room temperature was controlled to 21° C.±1° C., with 60%+20% humidity.
Animals were transferred 5-7 days before the start of the study to a real-time food intake monitoring system, HM-2 system (MBRose, Denmark), to allow acclimatization to experimental conditions. As the animals were uniquely identified with microchips, each individual animal was identified by its microchip upon entry and exit from the food channel. Randomization of the mice for each study group (n=7-8) was based on body weight measured the day before the start of the study. A vehicle-treated (50 mM phosphate buffer pH7 with 5% Mannitol) group was included in each experiment. Six hours before the start of the night phase animals were fasted. One hour before the dark phase animals were dosed once subcutaneously (10 nmol/kg) with test peptide. […] The food intake of the treated groups was normalized (in %) to the average food intake of the group receiving vehicle (Table 7). Statistical significance was evaluated using One-way analysis of variance with Turkey's multiple comparison test. P<0.05 was considered statistically significant.

[2] = target: T1, Human Neuropeptide Y2 Receptor (Homo sapiens, UniProt P49146); assay: Radioligand binding competition assay (RLB); settings: Table 3; human 125I-PYY (1-36) 0.02 nM, Y2 receptor membranes; read-out: Ki
T1 construct: purchased CHEMICON HTS066M
T1 sequence (P49146 1-381): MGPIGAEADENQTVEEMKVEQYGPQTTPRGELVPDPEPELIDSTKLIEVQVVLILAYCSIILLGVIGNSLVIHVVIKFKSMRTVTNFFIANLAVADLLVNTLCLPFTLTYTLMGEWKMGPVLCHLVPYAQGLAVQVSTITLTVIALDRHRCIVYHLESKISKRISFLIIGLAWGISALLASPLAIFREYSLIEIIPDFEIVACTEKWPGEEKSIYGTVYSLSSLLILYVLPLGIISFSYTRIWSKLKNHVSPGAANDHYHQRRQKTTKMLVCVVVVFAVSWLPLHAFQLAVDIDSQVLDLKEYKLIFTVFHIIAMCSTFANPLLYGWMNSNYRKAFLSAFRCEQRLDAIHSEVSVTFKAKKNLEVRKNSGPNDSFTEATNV
Procedure, shortened: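 Competition binding at commercial human NPY Y2 membrane preparations, 0.5 μg protein per well, 2 h incubation at room temperature. Bound and free ligand were separated on GF/C filters and counted; IC50 was fitted by nonlinear regression.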

| Ki [2] [nM] | SMILES | Acute Food Intake 24 h [% vehicle] [1] [% vehicle] |
| --- | --- | --- |
| 3.09 | CC(C)CC(=O)N[C@@H](C)C(=O)N1CCC[C@H]1C(=O)N[C@@H](CCC(=O)O)C(=O)N[C@@H](CCCCNC(=O)COCCOCCNC(=O)COCCOCCNC(=O)CC[C@H](NC(=O)CCCCCCCCCCCCCCCCC(=O)O)C(=O)O)C(=O)N1CCC[C@H]1C(=O)N[C@@H](CCC(=O)O)C(=O)N[C@@H](CCC(=O)O)C(=O)N[C@@H](CC(=O)O)C(=O)N[C@@H](C)C(=O)N[C@@H](CO)C(=O)N1CCC[C@H]1C(=O)N[C@@H](CCC(=O)O)C(=O)N[C@@H](CCC(=O)O)C(=O)N[C@H](C(=O)N[C@@H](CCC(N)=O)C(=O)N[C@@H](CCCNC(=N)N)C(=O)N[C@@H](Cc1ccc(O)cc1)C(=O)N[C@@H](Cc1ccc(O)cc1)C(=O)N[C@H](C(=O)N[C@H](C(=O)N[C@@H](CC(C)C)C(=O)N[C@@H](CCCNC(=N)N)C(=O)N[C@@H](Cc1c[nH]cn1)C(=O)N[C@@H](Cc1ccc(O)cc1)C(=O)N[C@@H](Cc1ccc(O)cc1)C(=O)N[C@@H](CC(N)=O)C(=O)N[C@@H](Cc1c[nH]c2ccccc12)C(=O)N[C@@H](CC(C)C)C(=O)N[C@H](C(=O)N[C@@H](CCCNC(=N)N)C(=O)N[C@@H](CCC(N)=O)C(=O)N[C@@H](CCCNC(=N)N)C(=O)N[C@@H](Cc1ccc(O)cc1)C(N)=O)[C@@H](C)O)[C@@H](C)O)C(C)C)[C@@H](C)O [Compound 16, N{alpha-4}-(3-methylbutanoyl)-N{epsilon-7}-[2-(2-{2-[2-(2-{2-[(4S)-4-carboxy-4-(17-carboxyheptadecanamido)butanamido]ethoxy}ethoxy)acetamido]ethoxy}ethoxy)acetamido]-[4A,7K,9E,17T,18Q,22V,23T,28Y,30W,31L]hPYY (4-36)] | 67 |
| 1.52 | CC(C)CC(=O)N[C@@H](C)C(=O)N1CCC[C@H]1C(=O)N[C@@H](CCC(=O)O)C(=O)N[C@@H](CCCCNC(=O)COCCOCCNC(=O)COCCOCCNC(=O)CC[C@H](NC(=O)CCCCCCCCCCCCCCCCC(=O)O)C(=O)O)C(=O)N1CCC[C@H]1C(=O)N[C@@H](CCC(=O)O)C(=O)N[C@@H](CCC(=O)O)C(=O)N[C@@H](CC(=O)O)C(=O)N[C@@H](C)C(=O)N[C@@H](CO)C(=O)N1CCC[C@H]1C(=O)N[C@@H](CCC(=O)O)C(=O)N[C@@H](CCC(=O)O)C(=O)N[C@@H](CC(C)C)C(=O)N[C@@H](CCC(N)=O)C(=O)N[C@@H](CCCCN)C(=O)N[C@@H](Cc1ccc(O)cc1)C(=O)N[C@@H](Cc1ccc(O)cc1)C(=O)N[C@H](C(=O)N[C@@H](CO)C(=O)N[C@@H](CC(C)C)C(=O)N[C@@H](CCCNC(=N)N)C(=O)N[C@@H](Cc1c[nH]cn1)C(=O)N[C@@H](Cc1ccc(O)cc1)C(=O)N[C@@H](Cc1ccc(O)cc1)C(=O)N[C@@H](CC(N)=O)C(=O)N[C@@H](Cc1c[nH]c2ccccc12)C(=O)N[C@@H](CC(C)C)C(=O)N[C@H](C(=O)N[C@@H](CCCNC(=N)N)C(=O)N[C@@H](CCC(N)=O)C(=O)N[C@@H](CCCNC(=N)N)C(=O)N[C@@H](Cc1ccc(O)cc1)C(N)=O)[C@@H](C)O)C(C)C [Compound 21, N{alpha-4}-(3-methylbutanoyl)-N{epsilon-7}-[2-(2-{2-[2-(2-{2-[(4S)-4-carboxy-4-(17-carboxyheptadecanamido)butanamido]ethoxy}ethoxy)acetamido]ethoxy}ethoxy)acetamido]-[4A,7K,9E,18Q,19K,22V,28Y,30W,31L]hPYY (4-36)] | 89 |
| 0.45 | CC(C)CC(=O)N[C@@H](C)C(=O)N1CCC[C@H]1C(=O)N[C@@H](CCC(=O)O)C(=O)N[C@@H](CCCCNC(=O)COCCOCCNC(=O)COCCOCCNC(=O)CC[C@H](NC(=O)CCCCCCCCCCCCCCCCC(=O)O)C(=O)O)C(=O)N1CCC[C@H]1C(=O)N[C@@H](CCC(=O)O)C(=O)N[C@@H](CCC(=O)O)C(=O)N1CCC[C@H]1C(=O)N[C@@H](C)C(=O)N[C@@H](CO)C(=O)N1CCC[C@H]1C(=O)N[C@@H](CCC(=O)O)C(=O)N[C@@H](CCC(=O)O)C(=O)N[C@@H](CC(C)C)C(=O)N[C@@H](CCC(N)=O)C(=O)N[C@@H](CCCNC(=N)N)C(=O)N[C@@H](Cc1ccc(O)cc1)C(=O)N[C@@H](Cc1ccc(O)cc1)C(=O)N[C@H](C(=O)N[C@@H](CCC(=O)O)C(=O)N[C@@H](CC(C)C)C(=O)N[C@@H](CCCNC(=N)N)C(=O)N[C@@H](Cc1c[nH]cn1)C(=O)N[C@@H](Cc1ccc(O)cc1)C(=O)N[C@@H](Cc1ccc(O)cc1)C(=O)N[C@@H](CC(N)=O)C(=O)N[C@@H](Cc1c[nH]c2ccccc12)C(=O)N[C@@H](CC(C)C)C(=O)N[C@H](C(=O)N[C@@H](CCCNC(=N)N)C(=O)N[C@@H](CCC(N)=O)C(=O)N[C@@H](CCCNC(=N)N)C(=O)N[C@@H](Cc1ccc(O)cc1)C(N)=O)[C@@H](C)O)C(C)C [Compound 33, N{alpha-4}-(3-methylbutanoyl)-N{epsilon-7}-[2-(2-{2-[2-(2-{2-[(4S)-4-carboxy-4-(17-carboxyheptadecanamido)butanamido]ethoxy}ethoxy)acetamido]ethoxy}ethoxy)acetamido]-[4A,7K,9E,11P,18Q,22V,23E,28Y,30W,31L]hPYY (4-36)] | 54 |
| 0.89 | CC(C)CC(=O)N[C@@H](C)C(=O)N1CCC[C@H]1C(=O)N[C@@H](CCC(=O)O)C(=O)N[C@@H](CCCCNC(=O)COCCOCCNC(=O)COCCOCCNC(=O)CC[C@H](NC(=O)CCCCCCCCCCCCCCCCC(=O)O)C(=O)O)C(=O)N1CCC[C@H]1C(=O)N[C@@H](CCC(=O)O)C(=O)N[C@@H](CCC(=O)O)C(=O)N[C@@H](CC(=O)O)C(=O)N[C@@H](C)C(=O)N[C@@H](CO)C(=O)N1CCC[C@H]1C(=O)N[C@@H](CCC(=O)O)C(=O)N[C@@H](CCC(=O)O)C(=O)N[C@@H](CC(C)C)C(=O)N[C@@H](CCC(N)=O)C(=O)N[C@@H](CCC(N)=O)C(=O)N[C@@H](Cc1ccc(O)cc1)C(=O)N[C@@H](Cc1ccc(O)cc1)C(=O)N[C@H](C(=O)N[C@@H](CCC(=O)O)C(=O)N[C@@H](CC(C)C)C(=O)N[C@@H](CCCNC(=N)N)C(=O)N[C@@H](Cc1c[nH]cn1)C(=O)N[C@@H](Cc1ccc(O)cc1)C(=O)N[C@@H](Cc1ccc(O)cc1)C(=O)N[C@@H](CC(N)=O)C(=O)N[C@@H](Cc1c[nH]c2ccccc12)C(=O)N[C@@H](CC(C)C)C(=O)N[C@H](C(=O)N[C@@H](CCCNC(=N)N)C(=O)N[C@@H](CCC(N)=O)C(=O)N[C@@H](CCCNC(=N)N)C(=O)N[C@@H](Cc1ccc(O)cc1)C(N)=O)[C@@H](C)O)C(C)C [Compound 49, N{alpha-4}-(3-methylbutanoyl)-N{epsilon-7}-[2-(2-{2-[2-(2-{2-[(4S)-4-carboxy-4-(17-carboxyheptadecanamido)butanamido]ethoxy}ethoxy)acetamido]ethoxy}ethoxy)acetamido]-[4A,7K,9E,18Q,19Q,22V,23E,28Y,30W,31L]hPYY (4-36)] | 60 |
